The source of these data is PubChem BioAssay (NCI).

“And” between values parts separate entries of the source, which are not always exact repeats. Equal values may be shown once.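 Test compounds were applied to cells in 96-well plates for 48 hours at 5 doses. GI50 is the concentration that inhibits growth by half. TGI: concentration producing complete growth inhibition.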 *1 amine or outer side, *2 acyl side, *3 side chain or, on linkers, in order; H or OH if unused. Where a SMILES comes first, the peptide text is derived from it. [ ]: non-standard residue; d: D form. X56 = CC[C@H](C)[C@H](OC(=O)[C@@H](C)[C@@H](CC)N[*:1])C(=O)[*:2]; X32 = C[C@H](N[*:1])C(=O)C(C)(C)C(=O)[*:2]; NMeY = CN[C@@H](Cc1ccc(O)cc1)C(=O)O; NMeL = CN[C@@H](CC(C)C)C(=O)O; NMeV = CN[C@H](C(=O)O)C(C)C

What all share (assay): DTP human tumour cell line panel, 48 h
The test system of assay [1] is ACHN renal.
In assay [2] the test system is HCT-15 colon.
Assay [3] relates to UACC-62 melanoma.
In assay [4] the test system is HT29 colon.
For assay [5], the system named is KM12 colon.
Assay [6] has as its system MOLT-4 leukemia.
Assay [7] has as its system MALME-3M melanoma.
Assay [8] has as its system MCF7 breast.
The subject of assay [9] is SN12C renal.
Assay [10] deals with MDA-MB-435.

Regarding `COc1cc(/C=C2\C(=O)Nc3cccc(Cl)c32)cc(OC)c1OC`, the GI50 – broadly, the concentration at which growth is held to half of that of the control – in assay [1] is 53.2 µM; in assay [2] it was more than 100 µM; in assay [3], more than 100 µM; in assay [4] it was more than 100 µM; in [5], more than 100 µM; in assay [6] it was 0.142 µM. Also, the GI50 in assay [7], in assay [8], in assay [9] and in assay [10] was more than 100 µM throughout. In addition, the TGI (as a rule, the concentration giving total growth inhibition) in [1] was more than 100 µM; in assay [2], more than 100 µM; in assay [3] it was more than 100 µM; in assay [4], more than 100 µM; in assay [5], more than 100 µM; in [6] it was 1.34 µM. Further, the TGI in assay [7], in assay [8], in assay [9] and in assay [10] was more than 100 µM each time.

`O=C(Nc1ccccc1)Nc1cccc(Oc2nnc(Cl)c3ccccc23)c1`: the GI50 is 3.47 µM in assay [1]; 3.54 µM in assay [2]; 6.84 µM in assay [3]; 5.26 µM in [4]; 5.51 µM in [5]; 2.6 µM in assay [6]. For the same compound, the GI50 in [7] is 1.62 µM; in [8], 1.32 µM; in assay [9], 6.72 µM; in [10], 7.54 µM. Besides, the concentration for total growth inhibition (TGI) in [1] is 18.7 µM; in assay [2], 12.9 µM; in assay [3], more than 25 µM; in assay [4], more than 25 µM; in assay [5], more than 25 µM; in assay [6], 11.4 µM. Moreover, the concentration for total growth inhibition (TGI) in assay [7] was 5.93 µM; in assay [8], 6.32 µM; in assay [9], more than 25 µM; in assay [10], more than 25 µM.

`Nc1nc(-c2cccc([N+](=O)[O-])c2)cc(-c2cc(-c3cccc([N+](=O)[O-])c3)nc(N)n2)n1`: the concentration for total growth inhibition (TGI) in [1], in assay [2], in assay [3], in [4], in [5] and in assay [6] was more than 100 µM each time. Moreover, the total growth inhibition concentration (TGI) in [7], in assay [8], in assay [9] and in assay [10] was more than 100 µM in each case.

Turning to `O=C1NN(c2ccccc2)C(=O)/C1=C/c1ccc(Br)o1`, the GI50 in assay [1] was 13.3 µM; in assay [2] it was 10.1 µM; in assay [3], 11.8 µM; in assay [4] it was 4.21 µM; in [5], 9.71 µM; in [6], 6.06 µM. Besides, the GI50 in [8] is 3.54 µM; in assay [9], 0.951 µM; in [10], 6.65 µM. The TGI in assay [1] is more than 49.4 µM; in assay [2] it was 24.7 µM; in [3], 24.3 µM; in [4] it was 22.1 µM; in assay [5], 24 µM; in assay [6] it was 24.6 µM. The TGI in assay [7] came out at 0.972 µM; in assay [8], 18.9 µM; in assay [9], 21.3 µM; in assay [10], 23.8 µM.

For the compound `CC(C)c1ccc(NC(=S)NC(=O)c2ccccc2)cc1`, the TGI in assay [1] stood at 55.9 µM; in assay [2], 40.7 µM; in [3] it was 30.7 µM; in [4], 32.4 µM; in assay [5], 46.5 µM; in assay [6] it was 52.3 µM. The concentration for total growth inhibition (TGI) is 69.8 µM in [7], 48.8 µM in assay [8], more than 100 µM in [9] and 28.1 µM in assay [10].

On to `CN1CCN(c2ccc(C(=O)Nc3cc(-c4cccc(NS(=O)(=O)c5ccccc5)c4)[nH]n3)cc2)CC1`, for which the GI50 in [1] was 7.6 µM; in [2] it was 12.3 µM; in assay [3], 11 µM; in [4], 3.51 µM; in assay [5], 0.0293 µM; in [6], 3 µM. The GI50 in assay [7] was 9.87 µM; in assay [8], 3.25 µM; in assay [9] it was 7.82 µM; in assay [10] it was 6.84 µM. Further, the concentration for total growth inhibition (TGI) in assay [1] turned out to be 26.7 µM; in assay [2], 39.2 µM; in [3], 23.4 µM; in assay [4], 14.6 µM; in assay [5], 13.8 µM; in assay [6], 12.5 µM. Moreover, the TGI in assay [7] was 26.7 µM; in assay [8], 16.9 µM; in assay [9], 24 µM; in assay [10] it was 22.3 µM.

Turning to `CC1(C)CC(Nc2ccc(Nc3ccccc3)cc2)CC(C)(C)N1`, the total growth inhibition concentration (TGI) in [1] came to 37.2 µM; in [2], 70.4 µM; in assay [3], 28.1 µM; in [4] it was 50.7 µM; in assay [5], 71.2 µM; in assay [6], 53.7 µM. The concentration for total growth inhibition (TGI) was 35.8 µM in assay [7], 33.5 µM in [8], 80.6 µM in assay [9] and 33.6 µM in [10].

With `CC[C@H](C)[C@@H]1OC(=O)[C@@H](C)[C@@H](CC)NC(=O)[C@H](C)NC(=O)C(C)(C)C(=O)[C@H](C)NC(=O)[C@H](Cc2ccc(OC)cc2)N(C)C(=O)[C@H](C(C)C)N(C)C(=O)CNC(=O)[C@H](CC(C)C)N(C)C(=O)CNC1=O` (cyclo(A[X56]G[NMeL]G[NMeV][NMeY](Me)[X32])), the 50% growth inhibitory concentration (GI50) in assay [1] was less than 0.0165 µM; in assay [2], 0.222 µM; in assay [3], 0.111 µM; in assay [5], 0.679 µM; in assay [6], 0.0807 µM; in [7], 0.0304 µM. In addition, the 50% growth inhibitory concentration (GI50) in assay [9] is 0.0433 µM. Also, the total growth inhibition concentration (TGI) in assay [1] was 0.332 µM and 0.0908 µM; in [2], more than 34.2 µM; in assay [3], 5.28 µM and 5.31 µM; in assay [4] it was 13.2 µM; in assay [5], 91.2 µM; in [6], 0.784 µM. Further, the TGI is 1.26 µM in [8]; 9.79 µM and 3.68 µM in [9]; 2.47 µM in [10].
